# According to US9084770B2, “Modulation of insulin like growth factor I receptor expression in cancer” (Antisense Therapeutics, Ltd., priority 2008, dated 2015):
# Assays:
# [1] = tested on: Cyclin D1, Cyclin E, p-RB, p27; test: Cell cycle proteins in LNCaP and PC-3 cells, immunoblot; type: cell-based, human
# Description: The Effect of IGF-IR silencing with IGF-IR antisense oligonucleotide (ATL1101) on LNCaP and PC3 cell apoptosis and cell cycle is shown in FIGS. 4A(i)-(ii), 4B, 4C(i)-(ii), and Table 2. Cells were transfected with indicated concentrations of ATL1101, control oligodeoxynucleotide or oligofectamine as in FIGS. 1A(i)-1B(ii). Two days after treatment, cell cycle analysis was determined by flow cytometry using propidium iodide staining. […] In FIGS. 4C(i)-(ii), LNCaP (FIG. 4C (i)) or PC-3 (FIG. 4C (ii)) cells were transfected with indicated concentration of ATL1101 or control oligodeoxynucleotide (ISIS 306064) for two days. Cells were then cultured in FBS media for one day and in serum-free media for one day. Whole cell lysates (30 μg) were subjected to SDS-PAGE and immunoblotted to assess Cyclin D1, Cyclin E, p-RB, total Rb, and p27 protein levels. Oligo, oligofectamine treated cells only.
# PC3 tumors [2] = test: PC-3 xenograft, tumor volume (monotherapy); type: in vivo, mice; details: 15 mg/kg i.p.
# Description: One million PC-3 or LNCaP cells were injected subcutaneously in athymic mice. For LNCaP xenografts, when PSA values exceeded 50 ng/ml, mice were castrated and randomly selected for treatment with ATL1101 or control oligodeoxynucleotide (15 mg/kg) injected i.p. once daily for 7 days and 3 times per week thereafter. Blood samples were obtained from the tail vein of the mice once weekly to measure serum PSA by ELISA. For PC-3 xenografts, when tumors reached 100 mm^3, mice were randomly selected and treated with the same protocol as LNCaP.
# The effects of IGF-IR antisense oligonucleotide treatment in LNCaP and PC-3 tumors in vivo are show in FIGS. 5A-5C. LNCaP cells were inoculated s.c. and when PSA values exceeded 50 ng/ml, mice were castrated and randomly selected for treatment with ATL1101 or control oligodeoxynucleotide (15 mg/kg) injected i.p. once daily for 7 days and 3 times per week thereafter. Blood samples were obtained from the tail vein of the mice once weekly to measure serum PSA by ELISA. PC-3 cells were inoculated s.c. and when tumors reached 100 mm^3, mice were randomly selected for treatment with the same protocol as LNCaP. Each point represents the mean tumor volume in each group containing 10 mice; bars, SE. * differs from control oligodeoxynucleotide treatment group (p<0.05) by Student's t test.
# PC3 tumors [3] = test: PC-3 xenograft with Paclitaxel, mean tumor volume; type: in vivo, mice; details: for mean tumor size: 15 mg/kg i.p. oligonucleotide plus Paclitaxel; for mean tumor size, % of control: plus Paclitaxel
# Description: In vivo treatments in a PC-3 xenograft model were done substantially as described by Zellweger et al., 2001. PC3 cells (2×10^6 cells) were xenografted by subcutaneous injection into recipient 6-8 week-old athymic nude (nu/nu) mice. When tumors reached 200 mm^3, mice were randomly assigned to one of two arms for treatment with 2′-MOE-modified IGF-IR antisense oligonucleotide (ATL1101) plus Paclitaxel, or mismatch control oligodeoxynucleotide ISIS 306064 plus Paclitaxel. Each experimental group consisted of 10 mice. After randomization, 15 mg/kg of ATL1101 antisense oligonucleotide or mismatch control oligonucleotide were injected intraperitoneal (i.p.) into each mouse once daily for the first 5 days and 3 times a week (every other day) thereafter for 7 weeks. On days 7, 9, 11, and on days 21, 23, and 25, 0.5 mg of polymeric micellar Paclitaxel was administered once daily by i.v. injection. Mean Tumor volume was measured once weekly for 8 weeks and calculated by the formula length×width×depth×0.5236.
# In PC3 mice, after 5 weeks of treatment, mean tumor size in mice treated with Paclitaxel and mismatch control oligodeoxynucleotide was 326+/−40.9 mm^3 compared with 175+/−20.1 mm^3 in mice treated with Paclitaxel and ATL1101, or 53.7% of control (p<0.01). After 8 weeks of treatment, mean tumor size in mice treated with Paclitaxel and mismatch control oligodeoxynucleotide was 1417+/−222 mm^3 compared with 507+/−79.3 mm^3 in mice treated with Paclitaxel and ATL1101, or 35.8% of control (p<0.01).
# [4] = tested on: IGF-IR protein (IGF-IRB subunit); test: IGF-IR protein in transfected LNCaP and PC3 cells, immunoblot; type: cell-based, human
# Description: Established methods were used to test the activity of IGF-IR antisense oligonucleotide on LNCaP and PC-3 cell growth (crystal violet assay) and apoptosis (FACS). Dose- and sequence-specific suppression of IGF-IR mRNA and protein expression in ATL1101-treated LNCaP and PC3 PC cell lines in vitro were observed by QT-PCR and western blotting. Effects of the IGF-IR antisense oligonucleotide on various putative targets, including IGF-IR and downstream targets were evaluated using western blotting.
# FIGS. 1B(i)-1B(ii) show sequence-specific and dose-dependent inhibition of IGF-IR protein by IGF-IR antisense oligonucleotide in LNCaP (FIG. 1B (i)) and PC-3 (FIG. […]) cells. […] Two days after the second transfection, whole cell detergent lysates were prepared and 30 μg of total protein was subjected to SDS-PAGE and immunoblotted for IGF-IRB subunit, IR-BB subunit and vinculin expression. Oligofectamine, oligofectamine treated cells only. In LNCaP cells, IGF-IR expression was >80% suppressed by 10 nM ATL1101 and was undetectable at 100 nM ATL1101. In PC3 cells, IGF-IR expression was suppressed ˜50% at 10 nM ATL1101, >80% at 50 nM ATL1101 and >90% at 200 nM. […] Vinculin expression is shown as a loading control.
substance,measurement,setting,value
"cgaaggaaacaatactccga (CGAAGGAAACAATACTCCGA; 2'-MOE modified, pattern not given here) [ISIS 175317, 2′-MOE-modified IGF-IR antisense oligonucleotide, also known as ATL1101]","activation of Cyclin D1, Cyclin E, p-RB",[1],suppressed
same,p27 protein production,[1],increased
same,tumor volume compared to control oligodeoxynucleotide,PC3 tumors [2],significantly reduced
same,mean tumor size,PC3 tumors [3]; after 5 weeks of treatment,175+/−20.1 mm^3
same,"mean tumor size, % of control",PC3 tumors [3]; after 5 weeks of treatment,53.7%
same,mean tumor size,PC3 tumors [3]; after 8 weeks of treatment,507+/−79.3 mm^3
same,"mean tumor size, % of control",PC3 tumors [3]; after 8 weeks of treatment,35.8%
same,suppression of IGF-IR protein expression,"[4]; LNCaP cells, 10 nM, two days after second transfection",> 80%
same,IGF-IR protein expression,"[4]; LNCaP cells, 100 nM",undetectable
same,suppression of IGF-IR protein expression,"[4]; PC3 cells, 10 nM",~50%
same,suppression of IGF-IR protein expression,"[4]; PC3 cells, 50 nM",> 80%
same,suppression of IGF-IR protein expression,"[4]; PC3 cells, 200 nM",> 90%
